# Assay results reported in PubChem BioAssay (NCI).
#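 96-well plates; 48 h exposure; 5 concentrations. Endpoints by linear interpolation between flanking doses. Not reached: highest tested concentration assigned. The concentration for 50% growth inhibition is given as GI50. TGI denotes the concentration required for complete inhibition of growth.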
# Legend:
# Assay in all cases: NCI-60 cell line screen, 48 h
# NCI-H522 lung = test system: NCI-H522 lung
# NCI/ADR-RES ovarian = test system: NCI/ADR-RES ovarian
# OVCAR-3 ovarian = test system: OVCAR-3 ovarian
# OVCAR-4 ovarian = test system: OVCAR-4 ovarian
# OVCAR-5 ovarian = test system: OVCAR-5 ovarian
# OVCAR-8 ovarian = test system: OVCAR-8 ovarian
# PC-3 prostate = test system: PC-3 prostate
# RPMI-8226 leukemia = test system: RPMI-8226 leukemia
# RXF 393 renal = test system: RXF 393 renal
# SF-268 CNS = test system: SF-268 CNS
# SF-295 CNS = test system: SF-295 CNS
# SF-539 CNS = test system: SF-539 CNS
# SK-MEL-2 melanoma = test system: SK-MEL-2 melanoma
# SK-MEL-28 melanoma = test system: SK-MEL-28 melanoma
# SK-MEL-5 melanoma = test system: SK-MEL-5 melanoma
# SK-OV-3 ovarian = test system: SK-OV-3 ovarian
# SN12C renal = test system: SN12C renal
# SNB-19 CNS = test system: SNB-19 CNS
# SNB-75 CNS = test system: SNB-75 CNS
# SR leukemia = test system: SR leukemia
# SW-620 colon = test system: SW-620 colon
# T-47D breast = test system: T-47D breast
# TK-10 renal = test system: TK-10 renal
# U251 CNS = test system: U251 CNS
# UACC-257 melanoma = test system: UACC-257 melanoma
# UACC-62 melanoma = test system: UACC-62 melanoma
# UO-31 renal = test system: UO-31 renal
smiles,measurement,setting,value
COc1cc(C2=NNC(c3ccc(N(C)C)cc3)C2)cc(OC)c1OC (centres undefined),GI50,NCI-H522 lung,2 µM
same,TGI,NCI-H522 lung,5.74 µM
same,GI50,NCI/ADR-RES ovarian,2.2 µM
same,TGI,NCI/ADR-RES ovarian,> 100 µM
same,GI50,OVCAR-3 ovarian,6.07 µM
same,TGI,OVCAR-3 ovarian,> 100 µM
same,GI50,OVCAR-4 ovarian,16.9 µM
same,TGI,OVCAR-4 ovarian,> 100 µM
same,GI50,OVCAR-5 ovarian,4.73 µM
same,TGI,OVCAR-5 ovarian,> 100 µM
same,GI50,OVCAR-8 ovarian,4.13 µM
same,TGI,OVCAR-8 ovarian,> 100 µM
same,GI50,PC-3 prostate,0.781 µM
same,TGI,PC-3 prostate,> 100 µM
same,GI50,RPMI-8226 leukemia,1.71 µM
same,TGI,RPMI-8226 leukemia,11.7 µM
same,GI50,RXF 393 renal,1.2 µM
same,TGI,RXF 393 renal,4.83 µM
same,GI50,SF-268 CNS,2.09 µM
same,TGI,SF-268 CNS,> 100 µM
same,GI50,SF-295 CNS,0.249 µM
same,TGI,SF-295 CNS,0.799 µM
same,GI50,SF-539 CNS,0.56 µM
same,TGI,SF-539 CNS,2.89 µM
same,GI50,SK-MEL-2 melanoma,3.18 µM
same,TGI,SK-MEL-2 melanoma,26.2 µM
same,GI50,SK-MEL-28 melanoma,15.6 µM
same,TGI,SK-MEL-28 melanoma,> 100 µM
same,GI50,SK-MEL-5 melanoma,2.09 µM
same,TGI,SK-MEL-5 melanoma,7.15 µM
same,GI50,SK-OV-3 ovarian,4.22 µM
same,TGI,SK-OV-3 ovarian,> 100 µM
same,GI50,SN12C renal,4.63 µM
same,TGI,SN12C renal,> 100 µM
same,GI50,SNB-19 CNS,1.82 µM
same,TGI,SNB-19 CNS,> 100 µM
same,GI50,SNB-75 CNS,1.02 µM
same,TGI,SNB-75 CNS,> 100 µM
same,GI50,SR leukemia,0.25 µM
same,TGI,SR leukemia,8.06 µM
same,GI50,SW-620 colon,0.45 µM
same,TGI,SW-620 colon,> 100 µM
same,GI50,T-47D breast,19.8 µM
same,TGI,T-47D breast,> 100 µM
same,GI50,TK-10 renal,10.1 µM
same,TGI,TK-10 renal,> 100 µM
same,GI50,U251 CNS,0.672 µM
same,TGI,U251 CNS,> 100 µM
same,GI50,UACC-257 melanoma,8.61 µM
same,TGI,UACC-257 melanoma,47.4 µM
same,GI50,UACC-62 melanoma,4.37 µM
same,TGI,UACC-62 melanoma,> 100 µM
same,GI50,UO-31 renal,4.75 µM
same,TGI,UO-31 renal,50.6 µM
